Measurements: patent US12486227B2, “Small molecules for cancer therapy that reduce the expression of transcription factors KLF5 and EGR-1” (University of Florida Research Foundation, Incorporated, priority 2019, dated 2025)
Where two headings read alike, the source gives them in different places.

Assays:
DLD-1 cells = experiment: Apoptosis assay (Annexin V/PI, FACS), DLD-1; type: cell-based, human
Experimental: We performed an apoptosis assay using DLD-1 and HCT116 cells treated with vehicle or 1 μM or 10 μM of test compounds over the course of three days with Annexin V/P1 stain in combination with FACS analysis. […] This is accompanied by an increase in the population of cells in early and late apoptosis, as well as an increase in the dead cell population over the three days of treatment. […] This effect was more pronounced upon treatment with SR18662 than ML264 or SR15006 (FIGS. 4D-F). When a lower concentration (1 μM) of test compounds was used, only a small increase of the population of cells undergoing early apoptosis was seen after 72 h treatment with SRI8662.
Cell proliferation, cell cycle and apoptosis assays. For cell proliferation experiments, cell cycle, and apoptosis determination, DLD-1 and HCT116 cells were treated with 1 or 10 μM of each compound or with vehicle (DMSO). The cells were collected at 24, 48, and 72 h post-treatment and analyzed as previously described (24). Each experiment was performed in triplicate.

[1] = test system: DLD-1-derived tumor xenografts; experiment: DLD-1 xenograft tumor growth in nude mice; type: in vivo, mouse
Experimental: SR18862 inhibits the growth of CRC xenografts in vivo. To evaluate SRI8662 in an in vivo model we used CRC cells for a mouse xenograft study. As described in more detail in the Examples section, nude mice were injected with DLD-1 CRC cells. Tumors were allowed to grow to an approximate size of 100 mm^3, and then mice were injected with vehicle or with varied concentrations of SR18662, given once a day or twice a day for five days, followed by two days without injection, and then followed by five days with injections. The experiment was completed the day after the last injection. […] Significant differences in tumor size are apparent at the end of the treatment schedule (FIG. 6B). To further characterize the impact of SR18662 on the features of isolated tumors, we compared vehicle-treated mice with mice that had been treated with SR18662 twice a day. […] Because SR18662 had induced cell apoptosis and death in the in vitro setting, we stained the xenografts with PanCK and TUNEL to estimate the levels of apoptosis in the in vivo context.
Xenografts. All mice studies were approved by the Stony Brook University Institutional Animal Care and Use Committee (IACUC) and performed in accordance with institutional policies and NIH guidelines. […] Tumor volume was determined by caliper measurement and calculated by the established method (25). […] Mice were monitored and weighed every two days. […]

MAPK pathway = experiment: Western blot of MAPK signaling pathway components; type: cell-based, human; details: DLD-1 and HCT116, 10 μM, 72 h
Excerpt: SR18662 negatively regulates MAPK and WNT signaling pathway and cyclin levels. Myriad publications have shown that in both in vitro and in vivo contexts KLF5 is regulated by MAPK and WNT signaling pathways and that KLF5, in turn, has the ability to modulate the activity of these pathways (14, 18, 26-32). We have previously shown that treatment of CRCs with ML264 results in decreased activity of both the MAPK and WNT signaling pathways (24). Because SR15006 and SRI8662 are structurally related to ML264, we decided to investigate their ability to alter the expression levels of the components of these pathways. Thus, we treated DLD-1 and HCT116 CRCs with DMSO (vehicle) and tested compounds at 1 μM or 10 μM, collecting the cells for western blot analysis at 24, 48, and 72 h. […] Similar effects were seen when both cell lines were treated these compounds at 1 μM. Furthermore, the inhibitory effects of SR18662 on the components of the MAPK signaling pathway we observed at earlier time points than were apparent following treatment with ML264 or SR15006.
Western blot analysis. Total protein was extracted from cells with Laemmli buffer and the analysis was performed as described previously (24).

[2] = test system: major human CYP450 liver enzymes; experiment: Inhibition of human CYP450 liver enzymes; type: in vitro ADME
DLD-1 colon cancer cells = experiment: MTT viability assay, DLD-1; type: cell-based; details: Homo sapiens
Excerpt: Specific Examples of compounds of the present disclosure have EC50 values estimated using a cell-based assay for binding to the KLF5 promoter and, in many cases, a follow-up viability assay (MTT) using DLD-1 colon cancer cells, a cell line known to highly express KLF5 and whose growth is adversely affected by the reduction of KLF5 levels. Assay protocols follow those described in the literature.^22,23 Other assays that are not described here but that are standard in the field may also be useful in establishing mechanism of action of these compounds.

[3] = test system: DLD-1, HCT116, HT29, and SW620 cells; experiment: Cell viability (Cell Titer-Glo) of four CRC cell lines; type: cell-based, human; details: 24 h, FIGS. 2A-C
Experimental: SR18662 is potent inhibitor of CRC cell growth in vitro. […]. To examine the impact of these compounds on viability of CRC cell lines, we performed cell proliferation and cell growth assays using DLD-1 and HCT116 CRC cells. […] […]. Cell viability. DLD-1, HCT116, HT29, and SW620 cells were seeded in 96 well plate format and treated with DMSO or with compounds dissolved in DMSO in the range of 0.001 to 20 μM final concertation for 24 h and analyzed with the Cell Titer-Glo luciferase assay system (Promega) using a SpectraMax M3 (Molecular Devices) plate reader. The IC50 values were calculated using GraphPad Prism version 5.00 for Windows (GraphPad Software).

inhibition of major human CYP450 liver enzymes [2]: does not inhibit
EC50 (DLD-1 colon cancer cells; MTT, Table 1, read-out: EC50 (nM) DLD-1): 1.7 nM
EC50 (DLD-1 colon cancer cells; Table 2, read-out: Approximate potency (EC50 · mol/L) (DLD1, MTT assay)): 1.68 nM
SMILES: CS(=O)(=O)N1CCN(C(=O)CNC(=O)/C=C/c2ccc(Cl)c(Cl)c2)CC1 [Example 9, (E)-3-(3,4-dichlorophenyl)-N-(2-(4-(methylsulfonyl)piperazin-1-yl)-2-oxoethyl)acrylamide]
healthy cell count and apoptosis (DLD-1 cells; DLD-1, 1 μM, 48 h and 72 h): decrease in healthy cell count at 48 h and 72 h and an increase in early and late apoptosis
population of healthy cells (DLD-1 cells; DLD-1, 10 μM, 48 and 72 h): significant decrease in the population of healthy cells
tumor growth vs vehicle-treated mice ([1]; i.p., 5-25 mg/kg once or twice a day): dose-dependent reduction in tumor growth
growth of CRC xenografts ([1]; once a day 10 mg/kg): strong inhibitory effects
expression levels of MAPK pathway components (MAPK pathway): negatively regulated the expression levels of the components of the MAPK pathway
cell viability IC50 relative to ML264 and SR15006 [3]: about one log unit lower than those for ML264 and SR15006
